Measurements taken from patent US20220040109A1, “KIDNEY-TARGETING DRUG DELIVERY CARRIER” (KYOTO PHARMACEUTICAL UNIVERSITY, priority 2017, published 2022).

Experiment: Toxicity in mouse (plasma creatinine, BUN, kidney histology)
Format: in vivo, ddY mice
Settings: compound 1a 1 mg/kg intravenous once per day for 5 days
Description: Six days after the first intravenous injection, under isoflurane anesthesia, the blood was collected from the vena cava to sacrifice the mice. Plasma creatinine and urea nitrogen (BUN) levels were respectively measured using a creatinine measurement kit (LabAssay, Wako) and a BUN measurement kit (DIUR-100, BioAssay System). Thereafter, kidneys were excised, fixed with 4% paraformaldehyde, and embedded in paraffin blocks. Then, 5-μm-thick sections were prepared. The kidney sections were stained with hematoxylin and eosin, and renal injury was evaluated using a light microscopy (Biozero, KEYENCE). In addition, when HgCl2 was administered as a positive control, plasma creatinine, BUN level and kidney sections were also evaluated by the above-mentioned methods.

**Q.** Which “histological sections of renal tissues (hematoxylin and eosin)” value (HgCl2 positive control, FIG. 10C) does the source give for `[Cl][Hg][Cl]` [HgCl2] here?
**A.** The value was “infiltration and necrosis of inflammatory cells and damaged cells were observed”.

**Q.** And the “plasma concentration of creatinine” value (HgCl2 subcutaneous positive control, FIG. 10A)?
**A.** The value was “significantly increased”.

**Q.** What about the “plasma concentration of BUN” value (HgCl2 subcutaneous positive control, FIG. 10B) of the same compound?
**A.** The value was “significantly increased”.
